From patent US20120270848A1, “Novel Compositions and Therapeutic Methods Using Same” (Galleon Pharmaceuticals, Inc., priority 2010, published 2012)
≈ marks a conversion by molar mass, not a printed value. Where “and” joins values, the source holds several entries; their conditions need not be identical. Equal entries are not always repeated. Entries after “also recorded” stand apart in the source; their conditions may differ.

How the values were obtained:
[1] = Comparative IV pharmacokinetics of a 20 min infusion; type: in vivo; details: 20 min infusion of 3 mg/kg/min IV
Procedure: FIG. 9 is a set of graphs illustrating the IV pharmacokinetics of a 20-minute infusion (from 15 minutes to 35 minutes) of 3 mg/kg/min IV (+)-doxapram and (−)-doxapram. The upper panel pharmacokinetic data was plotted on a linear y-axis, the lower panel represents the same data plotted on a log y-axis.
The difference in efficacy and adverse events seen between the enantiomers is therefore due to genuine differences in the intrinsic pharmacodynamics (i.e. pharmacology and side effects profiles) of the enantiomers, as opposed to differential exposures/pharmacokinetics. Results are illustrated in FIG. 9.

[2] = system: hypoxic ventilatory response in the rat; assay: Hypoxic ventilatory response to 12% O2, plethysmography; type: in vivo; details: IV infusion (Table 5: 1, 3 mg/kg/min; text: 3 mg/kg/min), compared to vehicle
Procedure: Rats with a pre-cannulated jugular vein (for administrating drugs) were acclimated to plethysmography chambers for a minimum of 60 minutes, or until animals were no longer restless. Each animal was dosed with (−)-doxapram, (+)-doxapram, or racemic doxapram via infusion into the jugular vein catheter over a period of 15 minutes, at 3 mg/kg/min at 0.020 ml/min based on a 300 gram rat. After a period of 15 minutes, an isocapnic, hypoxic mixture (12% O2 balanced N2) was administered into all chambers using a gas mixer (CWE inc. GSM-3 gas mixer) for 15 minutes. After 15 minutes, the gas mixer was turned off, resulting in normal room air pumped into the chambers. Ten minutes later, the infusion pumps were turned off, and all animals were given a 15 minute recovery period, followed by a post-study analysis of rat health and behavior. […] The small increases in minute ventilation seen towards the end of the experiment in the (−)-doxapram group (i.e. T20-T55) were associated with behavioral toxicities and therefore cannot be distinguished from non-specific side effects. Results are illustrated in FIG. 5 and Table 5.

rat = assay: Cardio-respiratory traces after IV bolus (respiratory flow, volumes, minute ventilation, blood pressure); type: in vivo; details: for effect on arterial blood pressure and arrhythmias / effect on respiratory flow, inspiratory and expiratory volume, minute ventilation: 30 mg/kg IV bolus
Procedure: (§1) All surgical procedures were performed under anesthesia induced by 2% isoflurane in compressed medical grade air. With rats in supine position, the right femoral vein was catheterized using polyethylene tubing (PE-50). This catheter was used for fluid and drug administration. Simultaneously, the right femoral artery was also catheterized for monitoring blood pressure. In order to measure the respiratory parameters in spontaneously breathing rats, trachea was intubated using 13 gauge tracheal tube (2.5 mm ID, Instech Solomon, Pa.).
The procedure outlined in Example 1 was used herein. […] Results are illustrated in FIG. 6.
The procedure described in Example 1 was used herein to evaluate the effect of (−)-doxapram on mean arterial blood pressure (MAP) in the rat. […] Results are illustrated in FIG. 8.

[3] = system: opioid-induced respiratory depression in the rat; assay: Opioid-induced respiratory depression, plethysmography (minute ventilation); type: in vivo; details: 1, 3 mg/kg/min IV infusion after 10 mg/kg IV morphine; compared to vehicle
Procedure: All animal experiments were carried out according to the US law on animals care and use approved by Galleon Pharmaceuticals Institutional Animal Care and Use Committee (IACUC). Rats with pre-cannulated jugular vein (for administrating drugs) were acclimated to plethysmography chambers for a minimum of 60 minutes, or until animals were no longer restless. Each animal was dosed with morphine sulfate (10 mg/kg), dissolved in sterile water at a concentration of 10 mg/mL (supplied by Baxter Healthcare Corporation), via injection into the jugular vein catheter over a period of 5-10 seconds. After a period of 5 min, (−)-doxapram, (+)-doxapram, or racemic doxapram ([…]) was administered via infusion into the jugular vein at a rate of 0.020 mL/min for a 300 gram rat. Behavioral observations were made though the course of the experiment. After 20 min of infusion at 1 mg/kg/min, the infusion rates were tripled from 0.020 mL/min to 0.060 mL/min for all rats, based on body weight. After 20 minutes of infusion at this dose, the infusion pumps were turned off, and all animals were given a 20 minute recovery period, followed by a post-study analysis of rat health and behavior. […] The small increase in minute ventilation seen towards the end of the experiment in the (−)-doxapram group was associated with behavioral toxicities and therefore cannot be distinguished from non-specific side effects. […]

[4] = system: opioid-induced respiratory depression in the rat; assay: Opioid-induced changes in arterial blood gas parameters, arterial blood gas analysis; type: in vivo; details: for Arterial Blood Gases - OIRD, pCO2 (mmHg) and saO2 (%): reversal of opioid-induced respiratory depression: 3 mg/kg/min IV infusion after 10 mg/kg IV morphine, compared to vehicle; for PaCO2: % reversal / PaO2: % reversal / pH % reversal / saO2: % reversal: 3.0 mpk/min IV infusion after morphine 10 mg/kg, vs composite vehicle group, 15 min into 20 min infusion
Procedure: Rats with pre-cannulated jugular vein and femoral arterial catheters (for administrating drugs and obtaining blood samples respectively) were obtained from Harlan laboratories and kept at the animal facility at Galleon Pharmaceuticals until the experimental procedures. All animals experiments were carried out according to the US law on animals care and use approved by Galleon Pharmaceuticals IACUC. Each animal was dosed with morphine sulfate (10 mg/kg), dissolved in saline at a concentration of 10 mg/ml, via injection into the jugular vein over a period of 20 seconds with a 20 second flush of 0.9% NaCl saline. Prior to morphine administration, two 250 μL samples of arterial blood were aspirated from the femoral artery into a pre-heparinized syringe. The samples were analyzed on Radiometer's ABL Flex 800, where pO2, pCO2, pH, saO2 and other parameters were recorded. Aspirated volumes of arterial blood were replaced by room temperature sterile saline (˜300 μL) slowly flushed back into the femoral arterial catheter of the rodent to prevent anemia and/or dehydration. Morphine was then administered and 2 minutes later another blood sample was taken. After a period of 5 min from the administration of morphine, (−)-doxapram, (+)-doxapram or racemic doxapram (15 mg/mL) was administered via infusion into the jugular vein at a rate of 60 μL/min/300 gram rat. The infusion started at t=15 minutes and ended at t=35 minutes. Arterial blood gas analysis occurred at time points t=17, 25, 30, 37, 45, and 50 minutes. […] The small improvements in blood gas parameters seen towards the end of the experiment in the (−)-doxapram group were associated with behavioral toxicities and therefore cannot be distinguished from non-specific side effects. Results are illustrated in Table 4 and FIGS. 3-4.

rats = assay: Observations of animal behavior and adverse effects; type: in vivo, rat; details: for Clonic movements (animals out of group of 6) / Hunching, static, increased urination & defecation (animals out of group of 6): 3 mg/kg; for Death (animals out of group of 6): 30 mg/kg IV bolus, 30 mg/kg
From the text: In Examples 1-7 described above, all rats are observed for behavioral changes and adverse effects, as recognized by those skilled in the art. Such effects include central nervous system and motor effects such as impairment, sedation, and convulsive potential, and mortality. Other effects related to bodily functions are also observable and may include changes in breathing, urination, defecation, posture, and normal cage activities (i.e., grooming, exploring, eating, etc.). […]

[5] = system: spontaneously breathing rats; assay: In vivo spirometry: cumulative dose-dependent ventilatory response (maximum peak minute ventilation); design: species or system rat
Procedure: as §1
After establishing a stable base-line at 1.5% isoflurane, cumulative dose-dependent (1, 3, 10 and 30 mg/kg) ventilatory responses to (−)-doxapram, (+)-doxapram, or racemic doxapram were generated from spontaneously breathing rats. Maximum peak minute ventilatory (MV) values at each dose from corresponding drug were calculated and used for generating ED50 values. Results are illustrated in Table 3 and FIG. 1. All the specific ventilatory stimulant activity of racemic doxapram was associated with the (+)-enantiomer.

[6] = Solubility in EtOH/MeOH for the chromatographic separation; type: physicochemical; details: organic solvent or mixture
Procedure: With stirring and sonication, 2.51 g of racemic doxapram were dissolved in approximately 200 mL EtOH/MeOH (50/50 v/v). The solution was injected onto the chromatographic column using the conditions illustrated above. The injection volume was 4 mL, performed every 7 minutes. The appropriate fractions collected from the chromatographic process were concentrated using rotary evaporators at 40° C. and 50 mbar. After solvent removal, the products were dried in a vacuum oven at 40° C. to obtain (−)-doxapram (1.19 g, 95% yield, ?99% e.e.) and (+)-doxapram (1.34 g, 107% yield, ≧99% e.e.). The experimental recovery of (+)-doxapram may have been high due to residual DMEA in the system.
A sample of 19.94 g of racemic doxapram was dissolved in approximately 1.0 L of EtOH/MeOH 80/20 (v/v) with stirring and sonication. The injection volume was 4 mL, and injection was performed every 5.83 min. The appropriate fractions collected from the chromatographic process were concentrated using rotary evaporators at 40° C. and 50 mbar. After solvent removal, the products were dried in a vacuum oven at 40° C. to obtain (−)-doxapram (8.47 g, 85% yield, ≧99% e.e.) and (+)-doxapram (12.50 g, 125% yield, ≧99% e.e.). The experimental recovery of (+)-doxapram may have been high due to residual DMEA in the system.

[7] = IV bolus, cumulative doses 1, 3, 10 and 30 mg/kg, 1.5% isoflurane, maximum peak MV values
[8] = ventilatory stimulant activity, rat IV

Row | SMILES | plasma exposure (time course, maximum concentration, AUC, washout), enantiomer vs enantiomer [1] | Plethysmography (MV), Naïve and HVR: potentiation of hypoxic ventilatory response [2] | effect on arterial blood pressure and arrhythmias (rat) | effect on respiratory flow, inspiratory and expiratory volume, minute ventilation (rat) | Plethysmography - OIRD (MV): reversal of opioid-induced respiratory depression [3] | Arterial Blood Gases - OIRD, pCO2 (mmHg) and saO2 (%): reversal of opioid-induced respiratory depression [4] | PaCO2: % reversal [4] [%] | PaO2: % reversal [4] [%] | pH % reversal [4] [%] | saO2: % reversal [4] [%] | Death (animals out of group of 6) (rats; Pleth.) | ED50 (mg/kg IV), increase in minute ventilation (MV) [5, 7] | also measured
1 | CCN1CC(CCN2CCOCC2)C(c2ccccc2)(c2ccccc2)C1=O (single isomer, unassigned; (-)) [(−)-doxapram] | directly comparable time course, maximum concentration and exposure (AUC) | did not; also recorded: Not active | pronounced reduction in arterial blood pressure together with a period of associated arrhythmias; also recorded: pronounced drop in blood pressure in rat, including a period of heart arrhythmias | only a minimal effect on respiratory flow, inspiratory and expiratory volume, and minute ventilation; also recorded: minimal ventilatory response | does not; also recorded: Not active | does not; also recorded: Not active | 24 | −2 | −8 | −6 | 5/6 | >200 mg/kg | Cardiopulmonary response: arrhythmias (rat; E-Phys, ≧10 mg/kg IV bolus): Arrhythmias; Cardiopulmonary response: mean arterial pressure (MAP) (rat; E-Phys, ≧10 mg/kg IV bolus, 10 mg/kg): MAP ↓↓; Clonic movements (animals out of group of 6) (rats; ABG post morphine, 3 mg/kg/min IV): 5/6; Hunching, static, increased urination & defecation (animals out of group of 6) (rats; Pleth., 3 mg/kg/min IV): 6/6; adverse effects across the studies (rats; at the doses tested, IV): consistently produced a variety of adverse effects; potency vs (+)-enantiomer (times less potent) [5, 8]: at least 100 times
2 | CCN1CC(CCN2CCOCC2)C(c2ccccc2)(c2ccccc2)C1=O (single isomer, unassigned; (+)) [(+)-doxapram, (+)-enantiomer of 1-ethyl-4-(2-morphilinoethyl)-3,3-diphenyl-2-pyrrolidinone] | directly comparable time course, maximum concentration and exposure (AUC) | significantly potentiated the hypoxic ventilatory response; also recorded: Active | only a minimal reduction in blood pressure without associated arrhythmias | increased respiratory flow, inspiratory and expiratory volume, as well as enhanced minute ventilation | significantly reverses opioid-induced respiratory depression; also recorded: Active | significantly reverse opioid-induced respiratory depression; also recorded: Active | 79 | 41 | 49 | 41 | 0/6 | 2.2 mg/kg and 2.1 mg/kg | Cardiopulmonary response: mean arterial pressure (MAP) (rat; E-Phys, ≧10 mg/kg IV bolus): MAP ↓; adverse effects across the studies (rats; rat, in vivo, iv): did not; Clonic movements (animals out of group of 6) (rats; rat, in vivo, iv): 0/6; Hunching, static, increased urination & defecation (animals out of group of 6) (rats; rat, in vivo, iv): 0/6
3 | CCN1CC(CCN2CCOCC2)C(c2ccccc2)(c2ccccc2)C1=O (racemic) [doxapram, 1-ethyl-4-(2-morphilinoethyl)-3,3-diphenyl-2-pyrrolidinone, reference compound] |  | significantly potentiated the hypoxic ventilatory response |  |  |  | significantly reverse opioid-induced respiratory depression | 90 | 22 | 58 | 33 |  |  | solubility ([6]; in EtOH/MeOH 80/20 (v/v)): 19.9 mg/mL (≈ 52.6 mM); solubility ([6]; in EtOH/MeOH (50/50 v/v)): 12.6 mg/mL (≈ 33.3 mM); ED50 ([5]; Rattus norvegicus, IV bolus, cumulative doses 1, 3, 10 and 30 mg/kg, 1.5% isoflurane, maximum peak MV values, read-out: ED50 (mg/kg IV), increase in minute ventilation (MV)): 4.8 mg/kg; potency relative to (+)-enantiomer [5, 8]: approximately 50%
